Patent US20170231928A1, “SOLID COMPOSITION OF FINGOLIMOD AND PREPARATION THEREOF” (SUNSHINE LAKE PHARMA CO., LTD., priority 2014, published 2017)

Assay: Excipient compatibility test: API and diluents, related substances
Type: physicochemical
Protocol: Some API and excipients mixture were weighed, placed in the vials, added with appropriate amount of purified water (w/w), and then sealed (simulated hot and humid environment) and placed in 60° C. oven. Sampled on the 10th day, and tested the content (%) of the related substances (single impurity and total impurities).

[1] = After 10 days (60° C.), water added, sealed

Related substances RRT = 0.84 (0 day): 0.06%
Related substances Total impurities (0 day): 0.06%
Related substances RRT = 0.84 [1]: 0.07%
Related substances RRT = 1.35 [1]: 0.03%
Related substances Total impurities [1]: 0.10%
Compound: CCCCCCCCc1ccc(CCC(N)(CO)CO)cc1 [API, 2-amino-2-[2-(4-octylphenyl)ethyl]propan-1,3-diol]
